Measurements taken from PubChem BioAssay AID1963964 (Molecular Pharmacology Branch, DTP, NCI, 2024).
Each block holds one molecule with its values, some of them ahead of it.

Test system: 997726-040-R-J2-PDC tumor spheroids, viability
Assay: Anticancer human tumor 997726-040-R-J2-PDC patient-derived squamous cell lung carcinoma cell line growth inhibition [PI3K]
Conditions: spheroids with HUVEC and MSC; for IC50: curve of first compound; for viability, T/C: stronger effect = lower value
Summary of the method: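 Three cell types, namely tumor cells, endothelial cells and mesenchymal stem cells, formed each spheroid. Combinations with four PI3K inhibitors were screened at clinically achievable concentrations decreasing by half-log, and spheroid viability was recorded.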

[1] = second compound 0.0316 µM, first compound 0.0316 µM
[2] = second compound 0.0316 µM, first compound 0.1 µM
[3] = second compound 0.0316 µM, first compound 0.316 µM
[4] = second compound 0.0316 µM, first compound 1 µM
[5] = second compound 0.0316 µM, first compound 3.16 µM
[6] = second compound 0.0316 µM, first compound 10 µM
[7] = second compound 0.1 µM, first compound 0.0316 µM
[8] = second compound 0.1 µM, first compound 0.1 µM
[9] = second compound 0.1 µM, first compound 0.316 µM
[10] = second compound 0.1 µM, first compound 1 µM
[11] = second compound 0.1 µM, first compound 3.16 µM
[12] = second compound 0.1 µM, first compound 10 µM
[13] = second compound 0.316 µM, first compound 0.0316 µM
[14] = second compound 0.316 µM, first compound 0.1 µM
[15] = second compound 0.316 µM, first compound 0.316 µM
[16] = second compound 0.316 µM, first compound 1 µM
[17] = second compound 0.316 µM, first compound 3.16 µM
[18] = second compound 0.316 µM, first compound 10 µM
[19] = second compound 1 µM, first compound 0.0316 µM
[20] = second compound 1 µM, first compound 0.1 µM
[21] = second compound 1 µM, first compound 0.316 µM
[22] = second compound 1 µM, first compound 1 µM
[23] = second compound 1 µM, first compound 3.16 µM
[24] = second compound 1 µM, first compound 10 µM
[25] = second compound 3.16 µM, first compound 0.0316 µM
[26] = second compound 3.16 µM, first compound 0.1 µM
[27] = second compound 3.16 µM, first compound 0.316 µM
[28] = second compound 3.16 µM, first compound 1 µM
[29] = second compound 3.16 µM, first compound 3.16 µM
[30] = second compound 3.16 µM, first compound 10 µM
[31] = second compound 10 µM, first compound 0.0316 µM
[32] = second compound 10 µM, first compound 0.1 µM
[33] = second compound 10 µM, first compound 0.316 µM
[34] = second compound 10 µM, first compound 1 µM
[35] = second compound 10 µM, first compound 3.16 µM
[36] = second compound 10 µM, first compound 10 µM
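Further: spheroids exposed to compounds for seven days before readout.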

IC50 (second compound 0.0316 µM): 269 nM | IC50 (second compound 0.1 µM): 269 nM | IC50 (second compound 0.316 µM): 120 nM | IC50 (second compound 1 µM): < 31.6 nM | IC50 (second compound 3.16 µM): < 31.6 nM | IC50 (second compound 10 µM): < 31.6 nM
Compound: CC(C)NCC(C(=O)N1CCN(c2ncnc3c2C(C)CC3O)CC1)c1ccc(Cl)cc1 (stereo not drawn) + Cc1nc(NC(=O)N2CCCC2C(N)=O)sc1-c1ccnc(C(C)(C)C(F)(F)F)c1
viability, T/C [1]: 73.4% | viability, T/C [2]: 65.9% | viability, T/C [3]: 47.7% | viability, T/C [4]: 23.8% | viability, T/C [5]: 12.7% | viability, T/C [6]: 8.8% | viability, T/C [7]: 71.6% | viability, T/C [8]: 66.8% | viability, T/C [9]: 46.6% | viability, T/C [10]: 25.9% | viability, T/C [11]: 15.2% | viability, T/C [12]: 10.6% | viability, T/C [13]: 55.9% | viability, T/C [14]: 52.5% | viability, T/C [15]: 39% | viability, T/C [16]: 22.4% | viability, T/C [17]: 11.2% | viability, T/C [18]: 9.52% | viability, T/C [19]: 49.5% | viability, T/C [20]: 37.2% | viability, T/C [21]: 34% | viability, T/C [22]: 21% | viability, T/C [23]: 10.5% | viability, T/C [24]: 6.76% | viability, T/C [25]: 33.2% | viability, T/C [26]: 27.5% | viability, T/C [27]: 25% | viability, T/C [28]: 16.5% | viability, T/C [29]: 7.98% | viability, T/C [30]: 4.28% | viability, T/C [31]: 15.8% | viability, T/C [32]: 10.9% | viability, T/C [33]: 10.7% | viability, T/C [34]: 5.86% | viability, T/C [35]: 3.95% | viability, T/C [36]: 3.36%

IC50 (second compound 0.0316 µM): 6130 nM | IC50 (second compound 0.1 µM): 5140 nM | IC50 (second compound 0.316 µM): 2490 nM | IC50 (second compound 1 µM): < 31.6 nM | IC50 (second compound 3.16 µM): < 31.6 nM | IC50 (second compound 10 µM): < 31.6 nM
Compound: CC1(C)CCC(CN2CCN(c3ccc(C(=O)NS(=O)(=O)c4ccc(NCC5CCOCC5)c([N+](=O)[O-])c4)c(Oc4cnc5[nH]ccc5c4)c3)CC2)=C(c2ccc(Cl)cc2)C1 + Cc1nc(NC(=O)N2CCCC2C(N)=O)sc1-c1ccnc(C(C)(C)C(F)(F)F)c1
viability, T/C [1]: 84.2% | viability, T/C [2]: 90.8% | viability, T/C [3]: 86.1% | viability, T/C [4]: 91.3% | viability, T/C [5]: 76% | viability, T/C [6]: 30.9% | viability, T/C [7]: 73% | viability, T/C [8]: 71.8% | viability, T/C [9]: 74.9% | viability, T/C [10]: 75.5% | viability, T/C [11]: 67.4% | viability, T/C [12]: 25.7% | viability, T/C [13]: 58.3% | viability, T/C [14]: 58.6% | viability, T/C [15]: 56.2% | viability, T/C [16]: 53.6% | viability, T/C [17]: 49.5% | viability, T/C [18]: 25.6% | viability, T/C [19]: 48.9% | viability, T/C [20]: 41% | viability, T/C [21]: 39% | viability, T/C [22]: 39.5% | viability, T/C [23]: 39.2% | viability, T/C [24]: 11.1% | viability, T/C [25]: 25% | viability, T/C [26]: 28.1% | viability, T/C [27]: 27.2% | viability, T/C [28]: 26.2% | viability, T/C [29]: 24.5% | viability, T/C [30]: 8.65% | viability, T/C [31]: 14.8% | viability, T/C [32]: 10.8% | viability, T/C [33]: 7.16% | viability, T/C [34]: 6.93% | viability, T/C [35]: 5.25% | viability, T/C [36]: 2.97%

IC50 (second compound 0.0316 µM): > 10000 nM | IC50 (second compound 0.1 µM): > 10000 nM | IC50 (second compound 0.316 µM): > 10000 nM | IC50 (second compound 1 µM): 58.9 nM | IC50 (second compound 3.16 µM): < 31.6 nM | IC50 (second compound 10 µM): < 31.6 nM
Compound: C[C@@H](NC(=O)c1ncnc(N)c1Cl)c1ncc(C(=O)Nc2cc(C(F)(F)F)c(Cl)cn2)s1 + Cc1nc(NC(=O)N2CCCC2C(N)=O)sc1-c1ccnc(C(C)(C)C(F)(F)F)c1
viability, T/C [1]: 101% | viability, T/C [2]: 115% | viability, T/C [3]: 111% | viability, T/C [4]: 107% | viability, T/C [5]: 102% | viability, T/C [6]: 68.2% | viability, T/C [7]: 96% | viability, T/C [8]: 97.5% | viability, T/C [9]: 99.5% | viability, T/C [10]: 83.9% | viability, T/C [11]: 66.3% | viability, T/C [12]: 60.2% | viability, T/C [13]: 64.7% | viability, T/C [14]: 62.4% | viability, T/C [15]: 66.8% | viability, T/C [16]: 76.3% | viability, T/C [17]: 61.3% | viability, T/C [18]: 47.7% | viability, T/C [19]: 49.4% | viability, T/C [20]: 49.5% | viability, T/C [21]: 45.3% | viability, T/C [22]: 48.6% | viability, T/C [23]: 42.8% | viability, T/C [24]: 35.4% | viability, T/C [25]: 36.6% | viability, T/C [26]: 39.9% | viability, T/C [27]: 34.5% | viability, T/C [28]: 33% | viability, T/C [29]: 35.9% | viability, T/C [30]: 21.2% | viability, T/C [31]: 15% | viability, T/C [32]: 15.4% | viability, T/C [33]: 18.4% | viability, T/C [34]: 18.8% | viability, T/C [35]: 19.6% | viability, T/C [36]: 8.61%

IC50 (second compound 0.0316 µM): > 100 nM | IC50 (second compound 0.1 µM): > 100 nM | IC50 (second compound 0.316 µM): > 100 nM | IC50 (second compound 1 µM): < 0.316 nM | IC50 (second compound 3.16 µM): < 0.316 nM | IC50 (second compound 10 µM): < 0.316 nM
Compound: Cn1ncnc1[C@H]1c2n[nH]c(=O)c3cc(F)cc(c23)N[C@@H]1c1ccc(F)cc1 + Cc1nc(NC(=O)N2CCCC2C(N)=O)sc1-c1ccnc(C(C)(C)C(F)(F)F)c1
viability, T/C (second compound 0.0316 µM, first compound 0.000316 µM): 83.8% | viability, T/C (second compound 0.0316 µM, first compound 0.001 µM): 81.5% | viability, T/C (second compound 0.0316 µM, first compound 0.00316 µM): 94.3% | viability, T/C (second compound 0.0316 µM, first compound 0.01 µM): 84.9% | viability, T/C [1]: 90.7% | viability, T/C [2]: 90.4% | viability, T/C (second compound 0.1 µM, first compound 0.000316 µM): 75.5% | viability, T/C (second compound 0.1 µM, first compound 0.001 µM): 78.6% | viability, T/C (second compound 0.1 µM, first compound 0.00316 µM): 78.5% | viability, T/C (second compound 0.1 µM, first compound 0.01 µM): 80.2% | viability, T/C [7]: 80.8% | viability, T/C [8]: 78.2% | viability, T/C (second compound 0.316 µM, first compound 0.000316 µM): 54.5% | viability, T/C (second compound 0.316 µM, first compound 0.001 µM): 59.4% | viability, T/C (second compound 0.316 µM, first compound 0.00316 µM): 57.2% | viability, T/C (second compound 0.316 µM, first compound 0.01 µM): 57.2% | viability, T/C [13]: 58.4% | viability, T/C [14]: 58% | viability, T/C (second compound 1 µM, first compound 0.000316 µM): 46.2% | viability, T/C (second compound 1 µM, first compound 0.001 µM): 43.4% | viability, T/C (second compound 1 µM, first compound 0.00316 µM): 40.3% | viability, T/C (second compound 1 µM, first compound 0.01 µM): 41.5% | viability, T/C [19]: 44.9% | viability, T/C [20]: 45.1% | viability, T/C (second compound 3.16 µM, first compound 0.000316 µM): 33% | viability, T/C (second compound 3.16 µM, first compound 0.001 µM): 29.4% | viability, T/C (second compound 3.16 µM, first compound 0.00316 µM): 30% | viability, T/C (second compound 3.16 µM, first compound 0.01 µM): 31.4% | viability, T/C [25]: 30.4% | viability, T/C [26]: 29% | viability, T/C (second compound 10 µM, first compound 0.000316 µM): 17.2% | viability, T/C (second compound 10 µM, first compound 0.001 µM): 18% | viability, T/C (second compound 10 µM, first compound 0.00316 µM): 16.3% | viability, T/C (second compound 10 µM, first compound 0.01 µM): 13.6% | viability, T/C [31]: 18.8% | viability, T/C [32]: 12.8%
